These results are taken from BindingDB's records for doi:10.1021/jm0704898 (Georgetown University Medical Center, 2007).

In general, Ki refers to the dissociation constant of the complex between target and ligand, obtained from inhibition or displacement. Read a high Ki as weaker binding.

The target in test [1] is T1, Suppressor of tumorigenicity 14 protein (Homo sapiens, UniProt Q9Y5Y6).
T1 sequence (Q9Y5Y6 whole entry): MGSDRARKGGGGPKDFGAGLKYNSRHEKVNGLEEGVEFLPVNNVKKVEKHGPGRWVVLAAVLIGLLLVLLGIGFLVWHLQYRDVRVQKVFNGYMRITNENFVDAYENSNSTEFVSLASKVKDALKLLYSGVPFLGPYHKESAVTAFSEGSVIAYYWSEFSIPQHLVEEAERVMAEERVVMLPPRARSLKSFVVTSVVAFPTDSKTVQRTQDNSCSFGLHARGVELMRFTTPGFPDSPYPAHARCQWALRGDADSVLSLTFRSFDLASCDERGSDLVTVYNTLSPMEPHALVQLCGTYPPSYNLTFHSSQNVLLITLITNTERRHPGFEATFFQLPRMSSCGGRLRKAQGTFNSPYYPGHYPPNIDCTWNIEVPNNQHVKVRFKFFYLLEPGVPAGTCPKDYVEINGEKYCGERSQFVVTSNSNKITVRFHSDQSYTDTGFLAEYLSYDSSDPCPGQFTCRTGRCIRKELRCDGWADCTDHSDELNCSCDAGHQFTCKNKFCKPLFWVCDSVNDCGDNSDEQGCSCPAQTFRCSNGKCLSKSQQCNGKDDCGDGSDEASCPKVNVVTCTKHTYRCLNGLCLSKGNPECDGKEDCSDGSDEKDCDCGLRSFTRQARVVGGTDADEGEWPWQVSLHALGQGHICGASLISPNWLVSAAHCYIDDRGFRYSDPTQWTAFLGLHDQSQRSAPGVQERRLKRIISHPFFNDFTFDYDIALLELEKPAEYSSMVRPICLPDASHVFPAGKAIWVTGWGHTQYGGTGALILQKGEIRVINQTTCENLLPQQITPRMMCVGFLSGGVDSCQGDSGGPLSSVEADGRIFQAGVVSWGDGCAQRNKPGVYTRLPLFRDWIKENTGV
Nature of the test: Enzyme Inhibition Assay. Particulars: pH 8.5; 22 °C. How it is done: (§1) The enzyme reaction was initiated by adding fluorescence peptide substrate to reaction mixture containing enzyme and test compounds. […] Hydrolysis rates were recorded in presence of six to seven different concentrations of inhibitor.

The target of another test is Prothrombin (Bos taurus, UniProt P00735). Description: Enzyme Inhibition Assay. Particulars: pH 8.5; 22 °C. How it is done: as §1

Positions of bridges follow the written chain, without caps; N, C: chain ends. Residues, ends and D or L forms follow the SMILES beside them.

On to `CC[C@H](C)[C@@H]1NC(=O)[C@@H]2CCCN2C(=O)[C@@H]2CCCN2C(=O)[C@H]([C@@H](C)CC)NC(=O)[C@H](CO)NC(=O)[C@H](CCCCN)NC(=O)[C@H]([C@@H](C)O)NC(=O)[C@@H]2CSSC[C@H](NC1=O)C(=O)N[C@@H](Cc1ccccc1)C(=O)N1CCC[C@H]1C(=O)N[C@@H](CC(=O)O)C(=O)NCC(=O)N[C@@H](Cc1ccc(N=C(N)N)cc1)C(=O)N2` [2-[(1R,4S,7S,13S,19S,22S,25S,28S,31R,34S,40S,43S,49S)-25-(4-aminobutyl)-49-benzyl-4,19-bis[(2S)-butan-2-yl]-34-[(4-carbamimidamidophenyl)methyl]-28-[(1R)-1-hydroxyethyl]-22-(hydroxymethyl)-3,6,12,18,21,24,27,30,33,36,39,42,48,51-tetradecaoxo-53,54-dithia-2,5,11,17,20,23,26,29,32,35,38,41,47,50-tetradecaazapentacyclo[29.20.4.0^{7,11}.0^{13,17}.0^{43,47}]pentapentacontan-40-yl]acetic acid], for which the Ki was found to be 90 µM in test [1] and 164 µM at Prothrombin.

In the case of `CC[C@H](C)[C@@H]1NC(=O)[C@H](CO)NC(=O)[C@H](CCCCN)NC(=O)[C@H]([C@@H](C)O)NC(=O)[C@@H]2CSSC[C@H](NC(=O)[C@H](CCC(N)=O)NC(=O)[C@@H]3CCCN3C(=O)[C@@H]3CCCN3C1=O)C(=O)N[C@@H](Cc1ccccc1)C(=O)N1CCC[C@H]1C(=O)N[C@@H](CC(=O)O)C(=O)NCC(=O)N[C@@H](CCCN=C(N)N)C(=O)N2` [2-[(1R,4S,7S,13S,19S,22S,25S,28S,31R,34S,40S,43S,49S)-25-(4-aminobutyl)-49-benzyl-19-[(2S)-butan-2-yl]-34-(3-carbamimidamidopropyl)-4-(2-carbamoylethyl)-28-[(1R)-1-hydroxyethyl]-22-(hydroxymethyl)-3,6,12,18,21,24,27,30,33,36,39,42,48,51-tetradecaoxo-53,54-dithia-2,5,11,17,20,23,26,29,32,35,38,41,47,50-tetradecaazapentacyclo[29.20.4.0^{7,11}.0^{13,17}.0^{43,47}]pentapentacontan-40-yl]acetic acid] (cyclo(CFPDGRCTKSIPPQ); disulfide 1-7), the Ki in test [1] was 2.33 µM; on Prothrombin, above 2500 µM.

`CC[C@H](C)[C@@H]1NC(=O)[C@@H]2CCCN2C(=O)[C@@H]2CCCN2C(=O)[C@H]([C@@H](C)CC)NC(=O)[C@H](CO)NC(=O)[C@H](CCCCCN)NC(=O)[C@H]([C@@H](C)O)NC(=O)[C@@H]2CSSC[C@H](NC1=O)C(=O)N[C@@H](Cc1ccccc1)C(=O)N1CCC[C@H]1C(=O)N[C@@H](CC(=O)O)C(=O)NCC(=O)N[C@@H](CCCN=C(N)N)C(=O)N2` [2-[(1R,4S,7S,13S,19S,22S,25S,28S,31R,34S,40S,43S,49S)-25-(5-aminopentyl)-49-benzyl-4,19-bis[(2S)-butan-2-yl]-34-(3-carbamimidamidopropyl)-28-[(1R)-1-hydroxyethyl]-22-(hydroxymethyl)-3,6,12,18,21,24,27,30,33,36,39,42,48,51-tetradecaoxo-53,54-dithia-2,5,11,17,20,23,26,29,32,35,38,41,47,50-tetradecaazapentacyclo[29.20.4.0^{7,11}.0^{13,17}.0^{43,47}]pentapentacontan-40-yl]acetic acid]: the results for the Ki (in test [1]; on Prothrombin) were 28 µM and 45.6 µM, respectively.

As to `CC[C@H](C)[C@@H]1NC(=O)[C@@H]2CCCN2C(=O)[C@@H]2CCCN2C(=O)[C@H]([C@@H](C)CC)NC(=O)[C@H](CO)NC(=O)[C@H](CCCNC(=N)N)NC(=O)[C@H]([C@@H](C)O)NC(=O)[C@@H]2CSSC[C@H](NC1=O)C(=O)N[C@@H](Cc1ccccc1)C(=O)N1CCC[C@H]1C(=O)N[C@@H](CC(=O)O)C(=O)NCC(=O)N[C@@H](CCCNC(=N)N)C(=O)N2` [2-[(1R,4S,7S,13S,19S,22S,25S,28S,31R,34S,40S,43S,49S)-49-benzyl-4,19-bis[(2S)-butan-2-yl]-25,34-bis(3-carbamimidamidopropyl)-28-[(1R)-1-hydroxyethyl]-22-(hydroxymethyl)-3,6,12,18,21,24,27,30,33,36,39,42,48,51-tetradecaoxo-53,54-dithia-2,5,11,17,20,23,26,29,32,35,38,41,47,50-tetradecaazapentacyclo[29.20.4.0^{7,11}.0^{13,17}.0^{43,47}]pentapentacontan-40-yl]acetic acid], the inhibition constant (Ki) in test [1] turned out to be 4.75 µM; on Prothrombin it was 0.86 µM.

On to `CC[C@H](C)[C@@H]1NC(=O)[C@@H]2CCCN2C(=O)[C@@H]2CCCN2C(=O)[C@H]([C@@H](C)CC)NC(=O)[C@H](CO)NC(=O)[C@H](CCCCN)NC(=O)[C@H]([C@@H](C)O)NC(=O)[C@H](CO)NC(=O)[C@H](CCCN=C(N)N)NC(=O)CNC(=O)[C@H](CC(=O)O)NC(=O)[C@@H]2CCCN2C(=O)[C@H](Cc2ccccc2)NC(=O)[C@H](CO)NC1=O` [2-[(1S,7S,10S,13S,16S,22S,25S,31S,34S,37S,40S,43S,46S)-40-(4-aminobutyl)-16-benzyl-10,46-bis[(2S)-butan-2-yl]-31-(3-carbamimidamidopropyl)-37-[(1R)-1-hydroxyethyl]-13,34,43-tris(hydroxymethyl)-2,8,11,14,17,23,26,29,32,35,38,41,44,47-tetradecaoxo-3,9,12,15,18,24,27,30,33,36,39,42,45,48-tetradecaazatetracyclo[46.3.0.0^{3,7}.0^{18,22}]henpentacontan-25-yl]acetic acid], for which the Ki in test [1] worked out at 107 µM; at Prothrombin, 40.4 µM.
